This note sets out measurements from patent publication US12595253B2, “Benzamides of pyrazolylamino-pyrimidinyl derivatives, and compositions and methods thereof” (LYNK PHARMACEUTICALS CO. LTD., priority 2019, dated 2026).

By IC50 is commonly meant the point on the concentration scale where inhibition reaches its midpoint.

Each structure is given as a SMILES string.

In one experiment the target is T1, JAK2V617F (Homo sapiens, UniProt O60674, V617F).
T1 construct: purchased Carna Biosciences
Put plainly: JAK2V617F microfluidic kinase assay (Caliper EZ Reader II, FAM labeled peptide substrate). Format: biochemical. As to conditions: JAK2V617F 2.5 nM, 1 mM ATP. The method, then:
(§1) Compounds were tested against JAK1, JAK2, JAK2V617F and TYK2. Assay Formats: JAK activity was determined in the reaction buffer 50 mM HEPES, 0.01% Brij35, 10 mM MgCl2, 2 mM DTT by a microfluidic assay. The phosphorylation of a FAM labeled peptide substrate was monitored in the Caliper EZ Reader II (Perkin Elmer). The assay condition for each batch of enzyme (Carna Biosciences) was optimized to obtain 10% conversion rate of peptide substrate. The test compounds were dissolved in DMSO to a stock concentration of 10 mM. 3-fold serially diluted compounds with top concentration of 5 μM were pre-incubated with JAK1, JAK2, JAK2V617F or TYK2 at indicated concentrations for 10 min at ambient temperature. The final DMSO concentration of assay mixture was 1%. […] The reaction was stopped by adding 50 mM EDTA. […] The percent inhibition was calculated by the following formula. % Inhibition=(Conversionmax−Conversionsample)/(Conversionmax−Conversionmin)*100 • Conversionmax means the conversion rate in the positive well without addition of compound • Conversionmin means the conversion rate in the well without addition of enzyme • Conversionsample means the conversion rate of test compounds The dose-response (percent inhibition) curve was plotted and IC50 values were determined by GraphPad software.

The target of the next experiment is T2, JAK1 (Homo sapiens, UniProt P23458).
T2 construct: purchased Carna Biosciences
Put plainly: JAK1 microfluidic kinase assay (Caliper EZ Reader II, FAM labeled peptide substrate). Format: biochemical. As to conditions: IC50 JAK1 (5 nM) (1 m MATP), JAK1 5 nM, 1 mM ATP. The method, then: as §1

T2 sequence (P23458 whole entry): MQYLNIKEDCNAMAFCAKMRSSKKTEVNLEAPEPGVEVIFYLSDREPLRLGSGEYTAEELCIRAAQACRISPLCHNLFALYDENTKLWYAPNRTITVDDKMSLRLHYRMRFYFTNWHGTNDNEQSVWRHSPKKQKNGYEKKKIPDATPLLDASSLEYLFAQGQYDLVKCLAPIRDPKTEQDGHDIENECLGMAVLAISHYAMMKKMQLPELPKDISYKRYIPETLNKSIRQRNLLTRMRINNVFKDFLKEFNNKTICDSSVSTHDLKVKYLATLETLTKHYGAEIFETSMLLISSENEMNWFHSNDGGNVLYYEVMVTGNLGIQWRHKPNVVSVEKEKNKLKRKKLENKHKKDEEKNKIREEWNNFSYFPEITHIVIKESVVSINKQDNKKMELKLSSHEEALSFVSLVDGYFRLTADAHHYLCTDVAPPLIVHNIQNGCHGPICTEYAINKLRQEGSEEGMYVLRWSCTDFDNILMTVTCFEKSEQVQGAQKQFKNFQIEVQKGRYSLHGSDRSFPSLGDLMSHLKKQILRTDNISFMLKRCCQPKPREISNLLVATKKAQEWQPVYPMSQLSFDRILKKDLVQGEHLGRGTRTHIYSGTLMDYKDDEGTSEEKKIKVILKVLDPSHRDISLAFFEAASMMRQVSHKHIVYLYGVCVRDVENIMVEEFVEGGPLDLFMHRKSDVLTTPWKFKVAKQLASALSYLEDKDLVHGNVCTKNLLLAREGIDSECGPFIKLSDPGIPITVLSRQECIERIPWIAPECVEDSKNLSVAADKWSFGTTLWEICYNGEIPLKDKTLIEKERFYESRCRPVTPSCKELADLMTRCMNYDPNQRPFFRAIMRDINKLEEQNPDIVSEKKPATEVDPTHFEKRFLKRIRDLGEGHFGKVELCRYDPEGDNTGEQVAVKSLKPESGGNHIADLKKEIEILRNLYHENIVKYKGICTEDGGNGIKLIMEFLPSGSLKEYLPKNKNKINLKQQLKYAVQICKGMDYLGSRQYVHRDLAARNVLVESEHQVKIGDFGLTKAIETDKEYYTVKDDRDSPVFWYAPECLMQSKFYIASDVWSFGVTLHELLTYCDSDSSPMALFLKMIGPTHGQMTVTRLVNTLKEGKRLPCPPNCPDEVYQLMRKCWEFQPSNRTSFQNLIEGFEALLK
T1 sequence (O60674 whole entry V617F): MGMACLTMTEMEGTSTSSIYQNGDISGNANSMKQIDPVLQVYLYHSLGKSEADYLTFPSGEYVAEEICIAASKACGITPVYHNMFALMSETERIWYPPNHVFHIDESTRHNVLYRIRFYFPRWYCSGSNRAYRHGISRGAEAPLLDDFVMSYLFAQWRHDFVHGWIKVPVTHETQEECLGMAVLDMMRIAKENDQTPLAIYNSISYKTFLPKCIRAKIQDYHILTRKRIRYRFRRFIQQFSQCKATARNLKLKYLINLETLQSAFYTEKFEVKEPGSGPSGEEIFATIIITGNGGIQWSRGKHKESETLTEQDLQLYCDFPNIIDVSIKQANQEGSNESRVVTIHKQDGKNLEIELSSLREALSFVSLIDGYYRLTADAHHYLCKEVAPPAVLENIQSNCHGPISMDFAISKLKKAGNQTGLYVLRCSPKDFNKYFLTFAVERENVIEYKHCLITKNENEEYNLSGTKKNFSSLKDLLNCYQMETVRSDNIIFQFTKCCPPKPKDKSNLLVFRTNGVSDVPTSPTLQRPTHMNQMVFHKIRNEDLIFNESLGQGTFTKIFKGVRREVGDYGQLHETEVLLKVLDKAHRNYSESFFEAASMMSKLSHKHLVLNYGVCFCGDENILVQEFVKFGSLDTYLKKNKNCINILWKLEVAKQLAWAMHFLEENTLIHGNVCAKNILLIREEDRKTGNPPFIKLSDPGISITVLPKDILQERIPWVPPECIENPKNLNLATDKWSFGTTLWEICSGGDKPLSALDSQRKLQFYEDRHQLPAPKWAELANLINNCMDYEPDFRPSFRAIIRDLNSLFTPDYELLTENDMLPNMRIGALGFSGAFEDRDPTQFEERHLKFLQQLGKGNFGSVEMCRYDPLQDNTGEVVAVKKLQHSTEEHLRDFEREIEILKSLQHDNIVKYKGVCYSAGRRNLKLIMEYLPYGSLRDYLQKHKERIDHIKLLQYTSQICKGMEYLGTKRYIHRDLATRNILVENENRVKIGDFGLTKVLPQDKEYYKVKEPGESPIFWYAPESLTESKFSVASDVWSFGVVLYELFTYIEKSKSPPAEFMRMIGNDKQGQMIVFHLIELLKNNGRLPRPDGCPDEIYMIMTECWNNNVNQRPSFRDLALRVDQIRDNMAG

Consider `Cc1cnc(Nc2cnn(C3CC4CCC(C3)N4C(=O)C3CC3)c2)nc1-c1ccc(C(=O)NCC#N)cc1` [Example 64, N-(cyanomethyl)-4-(2-((1-((1R,3r,5S)-8-(cyclopropanecarbonyl)-8-azabicyclo[3.2.1]octan-3-yl)-1H-pyrazol-4-yl)amino)-5-methylpyrimidin-4-yl)benzamide], for which the IC50 against JAK2V617F is 0.0409 µM; on JAK1 it was 0.0337 µM.
The corresponding values for `Cc1cnc(Nc2cnn(C3CCC(F)(F)CC3)c2)nc1-c1ccc(C(=O)N[C@@H](C)C#N)cc1` [Example 85, (S)—N-(1-cyanoethyl)-4-(2-((1-(4,4-difluorocyclohexyl)-1H-pyrazol-4-yl)amino)-5-methylpyrimidin-4-yl)benzamide] are 0.00217 µM and 0.0111 µM.
The like results for `Cc1cnc(Nc2cnn([C@H]3CC[C@@H](C#N)CC3)c2)nc1-c1ccc(C(=O)N[C@@H](C)C#N)cc1` [Example 149, 4-(2-((1-(Cis-4-cyanocyclohexyl)-1H-pyrazol-4-yl)amino)-5-methylpyrimidin-4-yl)-N—((S)-1-cyanoethyl)benzamide] were, in that order, 0.0305 µM and 0.015 µM.
For the compound `C[C@@H](C#N)NC(=O)c1ccc(-c2nc(Nc3cnn(C4CC4)c3)ncc2Cl)cn1` [Example 121, (S)-5-(5-chloro-2-((1-cyclopropyl-1H-pyrazol-4-yl)amino)pyrimidin-4-yl)-N-(1-cyanoethyl)picolinamide], the IC50 worked out at 0.245 µM against JAK2V617F and 0.0674 µM on JAK1.
For `CC[C@@H](C#N)NC(=O)c1ccc(-c2nc(Nc3cnn(C4CCOCC4)c3)ncc2Cl)cc1` [Example 203, (S)-4-(5-chloro-2-((1-(tetrahydro-2H-pyran-4-yl)-1H-pyrazol-4-yl)amino)pyrimidin-4-yl)-N-(1-cyanopropyl)benzamide], the IC50 at JAK2V617F worked out at 0.00306 µM; at JAK1, 0.00502 µM.
The like results for `CC[C@@H](C#N)NC(=O)c1ccc(-c2nc(Nc3cnn(C4CCOCC4)c3)ncc2C)cc1` [Example 201, (S)—N-(1-cyanopropyl)-4-(5-methyl-2-((1-(tetrahydro-2H-pyran-4-yl)-1H-pyrazol-4-yl)amino)pyrimidin-4-yl)benzamide] were, in that order, 0.00303 µM and 0.00222 µM.
The like results for `Cc1cnc(Nc2cnn(C3CCN(C(=O)C4(O)CC4)CC3)c2)nc1-c1ccc(C(=O)NCC#N)cc1` [Example 74, N-(cyanomethyl)-4-(2-((1-(1-(1-hydroxycyclopropanecarbonyl)piperidin-4-yl)-1H-pyrazol-4-yl)amino)-5-methylpyrimidin-4-yl)benzamide] were, in that order, 0.00418 µM and 0.0144 µM.
Take `Cc1cnc(Nc2cnn(C3CCOCC3)c2)nc1-c1ccc(C(=O)NCC(F)(F)F)cc1` [Example 76, 4-(5-Methyl-2-((1-(tetrahydro-2H-pyran-4-yl)-1H-pyrazol-4-yl)amino)pyrimidin-4-yl)-N-(2,2,2-trifluoroethyl)benzamide]: the IC50 at JAK2V617F is 0.00693 µM; against JAK1, 0.00747 µM.
In the case of `Cc1cnc(Nc2cnn(C3C[C@H]4CC[C@@H](C3)O4)c2)nc1-c1ccc(C(=O)NCC#N)cc1` (stereo partly drawn) [Example 69, 4-(2-((1-((1R,5S)-8-oxabicyclo[3.2.1]octan-3-yl)-1H-pyrazol-4-yl)amino)-5-methylpyrimidin-4-yl)-N-(cyanomethyl)benzamide], the IC50 on JAK2V617F is 0.0219 µM; against JAK1 it was 0.0143 µM.
For `Cc1cnc(Nc2cnn(C3CCOCC3)c2)nc1-c1ccc(C(=O)N[C@H](C)C#N)cc1` [Example 96, (R)—N-(1-cyanoethyl)-4-(5-methyl-2-((1-(tetrahydro-2H-pyran-4-yl)-1H-pyrazol-4-yl)amino)pyrimidin-4-yl)benzamide], the IC50 came out at 0.0842 µM on JAK2V617F and 0.0515 µM against JAK1.
The like results for `CC(C)(C)C(=O)N1CCC(n2cc(Nc3ncc(F)c(-c4ccc(C(=O)NCC#N)cc4)n3)cn2)CC1` [Example 56, N-(cyanomethyl)-4-(5-fluoro-2-((1-(1-pivaloylpiperidin-4-yl)-1H-pyrazol-4-yl)amino)pyrimidin-4-yl)benzamide] were, in that order, 0.0526 µM and 0.167 µM.
The corresponding values for `Cc1cnc(Nc2cnn(C3CCOCC3)c2)nc1-c1ccc(C(=O)NCCC(F)(F)F)cc1` [Example 77, 4-(5-Methyl-2-((1-(tetrahydro-2H-pyran-4-yl)-1H-pyrazol-4-yl)amino)pyrimidin-4-yl)-N-(3,3,3-trifluoropropyl)benzamide] are 0.0763 µM and 0.0435 µM.
The like results for `Cc1cnc(Nc2cnn(C3CCCOC3)c2)nc1-c1ccc(C(=O)NCC#N)cc1` (stereo not shown) [Example 67, N-(cyanomethyl)-4-(5-methyl-2-((1-(tetrahydro-2H-pyran-3-yl)-1H-pyrazol-4-yl)amino)pyrimidin-4-yl)benzamide] were, in that order, 0.027 µM and 0.017 µM.
As to `Cc1cnc(Nc2cnn(C3CC3)c2)nc1-c1ccc(C(=O)N[C@H](C#N)C(C)C)cc1` [Example 197, (S)—N-(1-Cyano-2-methylpropyl)-4-(2-((1-cyclopropyl-1H-pyrazol-4-yl)amino)-5-methylpyrimidin-4-yl)benzamide], the IC50 on JAK2V617F was found to be 0.0276 µM; against JAK1, 0.00414 µM.
The corresponding values for `Cc1cnc(Nc2cnn(C3CN(C(=O)C4CC4)C3)c2)nc1-c1ccc(C(=O)N[C@@H](C)C#N)cc1` [Example 71, (S)—N-(1-cyanoethyl)-4-(2-((1-(1-(cyclopropanecarbonyl)azetidin-3-yl)-1H-pyrazol-4-yl)amino)-5-methylpyrimidin-4-yl)benzamide] are 0.0428 µM and 0.026 µM.
The like results for `Cc1cnc(Nc2cnn(C3CCOCC3)c2)nc1-c1ccc(C(=O)NCC(C)(C)C#N)cc1` [Example 133, N-(2-cyano-2-methylpropyl)-4-(5-methyl-2-((1-(tetrahydro-2H-pyran-4-yl)-1H-pyrazol-4-yl)amino)pyrimidin-4-yl)benzamide] were, in that order, 0.0351 µM and 0.0189 µM.
The like results for `Cc1cnc(Nc2cnn(C3CCOC(C)C3)c2)nc1-c1ccc(C(=O)NCC#N)cc1` (stereo not shown) [Example 72, N-(cyanomethyl)-4-(5-methyl-2-((1-(2-methyltetrahydro-2H-pyran-4-yl)-1H-pyrazol-4-yl)amino)pyrimidin-4-yl)benzamide] were, in that order, 0.0336 µM and 0.028 µM.
As to `N#CCNC(=O)c1ccc(-c2nc(Nc3cnn(C4CC4)c3)ncc2C(F)F)cc1` [Example 110, N-(cyanomethyl)-4-(2-((1-cyclopropyl-1H-pyrazol-4-yl)amino)-5-(difluoromethyl)pyrimidin-4-yl)benzamide], the IC50 on JAK2V617F was found to be 0.556 µM; against JAK1, 0.152 µM.
For the compound `Cc1cnc(Nc2cnn([C@H]3CC[C@H](C#N)CC3)c2)nc1-c1ccc(C(=O)NCC#N)cc1` [Example 147, 4-(2-((1-(Trans-4-cyanocyclohexyl)-1H-pyrazol-4-yl)amino)-5-methylpyrimidin-4-yl)-N-(cyanomethyl)benzamide], the IC50 at JAK2V617F was 0.0199 µM; at JAK1, 0.0108 µM.
The like results for `C[C@H](C#N)NC(=O)c1ccc(-c2nc(Nc3cnn(C4CCN(C)CC4)c3)ncc2F)cc1` [Example 63, (R)—N-(1-Cyanoethyl)-4-(5-fluoro-2-((1-(1-methylpiperidin-4-yl)-1H-pyrazol-4-yl)amino)pyrimidin-4-yl)benzamide] were, in that order, 0.842 µM and 0.293 µM.
The like results for `Cc1cnc(Nc2cnn(C3CC4CCC(C3)N4C(=O)C3(C)CC3)c2)nc1-c1ccc(C(=O)NCC#N)cc1` [Example 65, N-(cyanomethyl)-4-(5-methyl-2-((1-((1R,3r,5S)-8-(1-methylcyclopropanecarbonyl)-8-azabicyclo[3.2.1]octan-3-yl)-1H-pyrazol-4-yl)amino)pyrimidin-4-yl)benzamide] were, in that order, 0.00454 µM and 0.0272 µM.
In the case of `CC[C@@H](C#N)NC(=O)c1ccc(-c2nc(Nc3cnn(C4CC4)c3)ncc2C)cc1` [Example 193, (S)—N-(1-cyanopropyl)-4-(2-((1-cyclopropyl-1H-pyrazol-4-yl)amino)-5-methylpyrimidin-4-yl)benzamide], the IC50 against JAK2V617F is 0.0426 µM; against JAK1, 0.0015 µM.
In the case of `Cc1cnc(Nc2cnn(C3CCC(F)(F)CC3)c2)nc1-c1ccc(C(=O)NCC#N)cc1` [Example 84, N-(cyanomethyl)-4-(2-((1-(4,4-difluorocyclohexyl)-1H-pyrazol-4-yl)amino)-5-methylpyrimidin-4-yl)benzamide], the IC50 stood at 0.0132 µM on JAK2V617F and 0.0111 µM against JAK1.
The like results for `CC(=O)N1CC(n2cc(Nc3ncc(C)c(-c4ccc(C(=O)N[C@@H](C)C#N)cc4)n3)cn2)C1` [Example 157] were, in that order, 0.0331 µM and 0.0222 µM.
The like results for `Cc1cnc(Nc2cnn(C3CC(F)(F)C3)c2)nc1-c1ccc(C(=O)N[C@@H](C)C#N)cc1` [Example 155, (S)—N-(1-cyanoethyl)-4-(2-((1-(3,3-difluorocyclobutyl)-1H-pyrazol-4-yl)amino)-5-methylpyrimidin-4-yl)benzamide] were, in that order, 1.89 µM and 0.48 µM.
The like results for `N#CCNC(=O)c1ccc(-c2nc(Nc3cnn(C4CCOCC4)c3)ncc2Cl)cc1` [Example 146, 4-(5-chloro-2-((1-(tetrahydro-2H-pyran-4-yl)-1H-pyrazol-4-yl)amino)pyrimidin-4-yl)-N-(cyanomethyl)benzamide] were, in that order, 0.0141 µM and 0.0135 µM.
